Data: patent publication US9273058B2 (BRISTOL-MYERS SQUIBB COMPANY, priority 2013, dated 2016)
Where two headings read alike, the source gives them in different places.

What was measured:
CK1ε = CK1ε (Homo sapiens, UniProt P49674); test: CK1ε kinase assay (Caliper LabChip electrophoretic separation of fluoresceinated peptide substrate and product); assay type: biochemical; details: 200 pM CK1ε, 50 μM ATP, 1.5 μM peptide, 22 hours at room temperature
Procedure, shortened: (§1)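 Incubated for twenty-two hours at ambient temperature, then quenched with EDTA and analyzed by electrophoretic separation of unphosphorylated and phosphorylated peptide.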

CK1δ = CK1δ (Homo sapiens, UniProt P48730); test: CK1δ kinase assay (Caliper LabChip electrophoretic separation of fluoresceinated peptide substrate and product); assay type: biochemical; details: 200 pM CK1δ, 50 μM ATP, 1.5 μM peptide, 22 hours at room temperature
Sequence of CK1δ (P48730 whole entry): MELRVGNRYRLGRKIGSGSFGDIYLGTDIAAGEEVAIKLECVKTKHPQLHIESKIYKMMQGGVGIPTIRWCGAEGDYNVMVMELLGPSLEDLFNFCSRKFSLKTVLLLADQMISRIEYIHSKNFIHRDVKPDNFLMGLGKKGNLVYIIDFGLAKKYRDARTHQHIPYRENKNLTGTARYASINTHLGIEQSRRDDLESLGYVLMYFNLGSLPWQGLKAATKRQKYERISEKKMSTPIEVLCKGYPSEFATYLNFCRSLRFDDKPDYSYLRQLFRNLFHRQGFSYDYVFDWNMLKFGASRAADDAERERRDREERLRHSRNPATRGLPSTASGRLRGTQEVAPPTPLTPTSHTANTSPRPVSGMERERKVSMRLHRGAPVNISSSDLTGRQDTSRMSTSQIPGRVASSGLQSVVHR
Procedure, shortened: as §1

Sequence of CK1ε (P49674 whole entry): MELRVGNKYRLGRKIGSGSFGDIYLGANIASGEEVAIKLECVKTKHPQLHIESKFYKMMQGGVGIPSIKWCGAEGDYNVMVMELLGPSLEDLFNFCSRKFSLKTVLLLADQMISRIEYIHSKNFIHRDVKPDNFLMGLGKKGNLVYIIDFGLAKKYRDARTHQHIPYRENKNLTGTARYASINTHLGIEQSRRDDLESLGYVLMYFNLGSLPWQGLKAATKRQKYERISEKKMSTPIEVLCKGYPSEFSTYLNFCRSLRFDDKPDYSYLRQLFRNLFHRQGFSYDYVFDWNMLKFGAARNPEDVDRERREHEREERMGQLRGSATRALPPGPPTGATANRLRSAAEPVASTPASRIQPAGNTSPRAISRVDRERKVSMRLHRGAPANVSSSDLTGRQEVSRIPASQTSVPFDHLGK

| Structure (SMILES) | IC50 (CK1ε; read-out: CK1ε IC50 range) | IC50 (CK1δ; read-out: CK1δ IC50 range) | IC50 (CK1ε; read-out: CK1ε) | IC50 (CK1δ; read-out: CK1δ) |
| --- | --- | --- | --- | --- |
| CC1(C)CC(NC(=O)N2CCn3nc(-c4ccc(Cl)c(Cl)c4)c(C(N)=O)c3C2)C1 [Compound 287, 2-(3,4-Dichlorophenyl)-N^5-(3,3-dimethylcyclobutyl)-6,7-dihydropyrazolo[1,5-a] pyrazine-3,5(4H)-dicarboxamide] | 0.01 to 10 nM | 0.01 to 10 nM | – | – |
| NC(=O)c1c(-c2ccc(F)c(Cl)c2)nn2c1CN(C(=O)NC13CCC(CF)(CC1)CC3)CC2 [Compound A56, 2-(3-Chloro-4-fluorophenyl)-N^5-(4-(fluoromethyl)bicyclo[2.2.2]octan-1-yl)-6,7-dihydropyrazolo[1,5-a]pyrazine-3,5(4H)-dicarboxamide] | 0.01 to 10 nM | 0.01 to 10 nM | – | – |
| CC(C)(C)NC(=O)N1CCn2nc(-c3cccc(S(N)(=O)=O)c3)c(C(N)=O)c2C1 [Compound 136, N^5-(tert-Butyl)-2-(3-sulfamoylphenyl)-6,7-dihydropyrazolo[1,5-a] pyrazine-3,5(4H)-dicarboxamide] | 100 to 2000 nM | 100 to 2000 nM | – | – |
| COCC(C)(C)NC(=O)N1CCn2nc(-c3cccc(Cl)c3)c(C(N)=O)c2C1 [Compound A47, 2-(3-Chlorophenyl)-N^5-(1-methoxy-2-methylpropan-2-yl)-6,7-dihydropyrazolo[1,5-a] pyrazine-3,5(4H)-dicarboxamide] | 0.01 to 10 nM | 0.01 to 10 nM | – | – |
| C[C@@H]1CN(C(=O)NC2CC(F)(F)C2)Cc2c(C(N)=O)c(-c3ccc(Cl)c(Cl)c3)nn21 [Compound A35, (R)-2-(3,4-Dichlorophenyl)-N^5-(3,3-difluorocyclobutyl)-7-methyl-6,7-dihydropyrazolo[1,5-a]pyrazine-3,5(4H)-dicarboxamide] | 0.01 to 10 nM | 0.01 to 10 nM | – | – |
| NC(=O)c1c(-c2ccc(Cl)c(Cl)c2)nn2c1CN(C(=O)NC1CC3(C1)CC3(F)F)CC2 (single isomer, unassigned) [Compound 324, 2-(3,4-Dichlorophenyl)-N^5-(1,1-difluorospiro[2.3]hexan-5-yl)-6,7-dihydropyrazolo[1,5-a]pyrazine-3,5(4H)-dicarboxamide] | 0.01 to 10 nM | 0.01 to 10 nM | – | – |
| CC(C)(O)C12CCC(NC(=O)N3CCn4nc(-c5ccc(F)c(Cl)c5)c(C(N)=O)c4C3)(CC1)CC2 [Compound A62, 2-(3-Chloro-4-fluorophenyl)-N^5-(4-(2-hydroxypropan-2-yl)bicyclo[2.2.2]octan-1-yl)-6,7-dihydropyrazolo[1,5-a]pyrazine-3,5(4H)-dicarboxamide] | 0.01 to 10 nM | 0.01 to 10 nM | – | – |
| CC(C)(NC(=O)N1CCn2nc(-c3ccc(F)c(Cl)c3)c(C(N)=O)c2C1)C(=O)N1CCCC1 [Compound 215, 2-(3-Chloro-4-fluorophenyl)-N^5-(2-methyl-1-oxo-1-(pyrrolidin-1-yl)propan-2-yl)-6,7-dihydropyrazolo [1,5-a]pyrazine-3,5(4H)-dicarboxamide] | 10 to 100 nM | 0.01 to 10 nM | – | – |
| NC(=O)c1c(-c2cccc(F)c2)nn2c1CN(C(=O)NC1CC1)CC2 [Compound 7, N^5-Cyclopropyl-2-(3-fluorophenyl)-6,7-dihydropyrazolo[1,5-a]pyrazine-3,5(4H)-dicarboxamide] | 10 to 100 nM | 10 to 100 nM | – | – |
| NC(=O)c1c(-c2ccc(Cl)c(Cl)c2)nn2c1CN(C(=O)NCC1CC(F)(F)C1)CC2 [Compound 205, 2-(3,4-Dichlorophenyl)-N^5-((3,3-difluorocyclobutyl)methyl)-6,7-dihydropyrazolo[1,5-a] pyrazine-3,5(4H)-dicarboxamide] | 0.01 to 10 nM | 0.01 to 10 nM | – | – |
| CC(C)(C)NC(=O)N1Cc2c(C(N)=O)c(-c3ccc(F)c(Cl)c3)nn2C2(COC2)C1 [Compound A134, N^5′-(tert-Butyl)-2′-(3-chloro-4-fluorophenyl)-4′H-spiro[oxetane-3,7′-pyrazolo[1,5-a]pyrazine]-3′,5′(6′H)-dicarboxamide] | 0.01 to 10 nM | 0.01 to 10 nM | – | – |
| COCCNC(=O)C(C)(C)NC(=O)N1CCn2nc(-c3ccc(F)c(Cl)c3)c(C(N)=O)c2C1 [Compound 217, 2-(3-Chloro-4-fluorophenyl)-N^5-(1-((2-methoxyethyl)amino)-2-methyl-1-oxopropan-2-yl)-6,7-dihydropyrazolo[1,5-a] pyrazine-3,5(4H)-dicarboxamide] | 100 to 2000 nM | 10 to 100 nM | – | – |
| CC(C)(C)NC(=O)N1CCn2nc(-c3cccc(C(F)(F)F)c3)c(C(N)=O)c2C1 [Compound 110, N^5-(tert-Butyl)-2-(3-(trifluoromethyl)phenyl)-6,7-dihydropyrazolo[1,5-a] pyrazine-3,5(4H)-dicarboxamide] | 100 to 2000 nM | 10 to 100 nM | 156 nM | 83.9 nM |
| NC(=O)c1c(-c2cccc(F)c2)nn2c1CN(C(=O)Nc1ccc(Cl)cc1C(F)(F)F)CC2 [Compound 57, N^5-(4-Chloro-2-(trifluoromethyl)phenyl)-2-(3-fluorophenyl)-6,7-dihydropyrazolo[1,5-a]pyrazine-3,5(4H)-dicarboxamide] | 100 to 2000 nM | 10 to 100 nM | – | – |
| CC(C)(C)NC(=O)N1Cc2c(C(N)=O)c(-c3ccc(F)c(Cl)c3)nn2CC1C(F)(F)F (single isomer, unassigned) [Compound 346, N^5-(tert-Butyl)-2-(3-chloro-4-fluorophenyl)-6-(trifluoromethyl)-6,7-dihydropyrazolo[1,5-a]pyrazine-3,5(4H)-dicarboxamide] | 100 to 2000 nM | 100 to 2000 nM | – | – |
| COC12CCC(NC(=O)N3CCn4nc(-c5ccc(F)c(Cl)c5)c(C(N)=O)c4C3)(CC1)C2 [Compound A63, 2-(3-Chloro-4-fluorophenyl)-N^5-(4-methoxybicyclo[2.2.1]heptan-1-yl)-6,7-dihydropyrazolo[1,5-a]pyrazine-3,5(4H)-dicarboxamide] | 0.01 to 10 nM | 0.01 to 10 nM | – | – |
| NC(=O)c1c(-c2ccc(Cl)c(Cl)c2)nn2c1CN(C(=O)N[C@@H]1CC[C@H]1COC(F)F)CC2 [Compound 243, 2-(3,4-Dichlorophenyl)-N^5-((1R,2R)-2-((difluoromethoxy)methyl)cyclobutyl)-6,7-dihydropyrazolo[1,5-a] pyrazine-3,5(4H)-dicarboxamide] | 0.01 to 10 nM | 0.01 to 10 nM | – | – |
| CC(C)(C)NC(=O)N1Cc2c(C(N)=O)c(-c3ccc(F)c(Cl)c3)nn2C(C(C)(C)O)C1 (stereo not shown) [Compound A18, N^5-(tert-Butyl)-2-(3-chloro-4-fluorophenyl)-7-(2-hydroxypropan-2-yl)-6,7-dihydropyrazolo[1,5-a]pyrazine-3,5(4H)-dicarboxamide] | 0.01 to 10 nM | 0.01 to 10 nM | – | – |
| CC(C)(C)NC(=O)N1CCn2nc(-c3cccc(Cl)c3Cl)c(C(N)=O)c2C1 [Compound 130, N^5-(tert-Butyl)-2-(2,3-dichlorophenyl)-6,7-dihydropyrazolo[1,5-a] pyrazine-3,5(4H)-dicarboxamide] | 10 to 100 nM | 10 to 100 nM | 89.5 nM | 96.4 nM |
| CC(C)(C)NC(=O)N1Cc2c(C(N)=O)c(-c3cccc(F)c3)nn2C(CF)C1 (single isomer, unassigned) [Compound A107, N^5-(tert-Butyl)-7-(fluoromethyl)-2-(3-fluorophenyl)-6,7-dihydropyrazolo[1,5-a]pyrazine-3,5(4H)-dicarboxamide] | 0.01 to 10 nM | 0.01 to 10 nM | – | – |
| CC(C)(C)NC(=O)N1Cc2c(C(N)=O)c(-c3ccc(F)c(Cl)c3)nn2C(C(C)(C)O)C1 (stereo not shown) [Compound A17, N^5-(tert-Butyl)-2-(3-chloro-4-fluorophenyl)-7-(2-hydroxypropan-2-yl)-6,7-dihydropyrazolo[1,5-a]pyrazine-3,5(4H)-dicarboxamide] | 10 to 100 nM | 10 to 100 nM | – | – |
| NC(=O)c1c(-c2ccc(Cl)c(Cl)c2)nn2c1CN(C(=O)N[C@H]1C[C@@H](F)C1)CC2 [Compound 203, 2-(3,4-Dichlorophenyl)-N^5-((1s,3s)-3-fluorocyclobutyl)-6,7-dihydropyrazolo[1,5-a] pyrazine-3,5(4H)-dicarboxamide] | 0.01 to 10 nM | 0.01 to 10 nM | – | – |
| CC(C)(C)NC(=O)N1Cc2c(C(N)=O)c(-c3ccc(F)c(Cl)c3)nn2CC1C(F)(F)F (single isomer, unassigned) [Compound 347, N^5-(tert-Butyl)-2-(3-chloro-4-fluorophenyl)-6-(trifluoromethyl)-6,7-dihydropyrazolo[1,5-a]pyrazine-3,5(4H)-dicarboxamide] | 0.01 to 10 nM | 10 to 100 nM | – | – |
| CC1(NC(=O)N2CCn3nc(-c4ccc(Cl)c(Cl)c4)c(C(N)=O)c3C2)CC2(C1)CC2(F)F (single isomer, unassigned) [Compound 328, 2-(3,4-Dichlorophenyl)-N^5-(1,1-difluoro-5-methylspiro[2.3]hexan-5-yl)-6,7-dihydropyrazolo[1,5-a]pyrazine-3,5(4H)-dicarboxamide] | 0.01 to 10 nM | 0.01 to 10 nM | – | – |
| C[C@H]1CN(C(=O)NC2CC(F)(F)C2)Cc2c(C(N)=O)c(-c3ccc(F)c(Cl)c3)nn21 [Compound A115, (S)-2-(3-Chloro-4-fluorophenyl)-N^5-(3,3-difluorocyclobutyl)-7-methyl-6,7-dihydropyrazolo[1,5-a]pyrazine-3,5(4H)-dicarboxamide] | 0.01 to 10 nM | 0.01 to 10 nM | – | – |
| CC1(NC(=O)N2CCn3nc(-c4ccc(Cl)c(Cl)c4)c(C(N)=O)c3C2)CC2(CC2)C1 [Compound 319, 2-(3,4-Dichlorophenyl)-N^5-(5-methylspiro[2.3]hexan-5-yl)-6,7-dihydropyrazolo[1,5-a]pyrazine-3,5(4H)-dicarboxamide] | 0.01 to 10 nM | 0.01 to 10 nM | – | – |
| CC(C)(CO)NC(=O)N1CCn2nc(-c3cccc(Cl)c3)c(C(N)=O)c2C1 [Compound A46, 2-(3-Chlorophenyl)-N^5-(1-hydroxy-2-methylpropan-2-yl)-6,7-dihydropyrazolo[1,5-a] pyrazine-3,5(4H)-dicarboxamide] | 0.01 to 10 nM | 0.01 to 10 nM | – | – |
